Assay results published in US7241791B2, “Substituted 4-(indazol-3-yl)phenols” (Wyeth, priority 2002, dated 2007).

Assays:
[1] = target: T1, human ERα (Homo sapiens, UniProt P03372); assay: NF-κB luciferase reporter (ER/NF-KB-luc) in Ad5-wt-hERα infected HAECT-1 cells; details: for IC50: ER/NF-KB-luc IC50, Ad5-wt-ER infected HAECT-1 cells, IL-1β; for Emax: HAECT1, read-out: ER/NF-KB-luc % E2, efficacy relative to the maximal inhibition observed with E2
T1 sequence (P03372 1-595): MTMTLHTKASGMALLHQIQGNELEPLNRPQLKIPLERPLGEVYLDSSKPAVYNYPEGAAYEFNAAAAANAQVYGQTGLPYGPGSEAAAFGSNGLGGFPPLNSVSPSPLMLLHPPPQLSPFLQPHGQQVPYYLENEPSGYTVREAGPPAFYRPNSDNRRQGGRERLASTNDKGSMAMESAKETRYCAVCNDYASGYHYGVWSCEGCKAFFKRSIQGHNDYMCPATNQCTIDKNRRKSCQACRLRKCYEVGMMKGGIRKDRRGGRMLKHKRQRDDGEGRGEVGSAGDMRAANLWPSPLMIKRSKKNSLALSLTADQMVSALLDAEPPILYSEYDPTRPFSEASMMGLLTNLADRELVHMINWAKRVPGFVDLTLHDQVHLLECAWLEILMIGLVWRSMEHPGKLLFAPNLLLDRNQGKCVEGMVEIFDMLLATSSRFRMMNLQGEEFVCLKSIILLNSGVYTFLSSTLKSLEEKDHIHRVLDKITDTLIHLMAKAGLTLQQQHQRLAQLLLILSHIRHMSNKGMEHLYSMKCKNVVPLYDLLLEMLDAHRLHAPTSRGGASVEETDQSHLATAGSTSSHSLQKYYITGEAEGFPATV

[2] = target: T1, human ERα; assay: Creatine kinase expression (ER/CK) in Ad5-wt-hERα infected HAECT-1 cells; details: for ER/CK % E2: efficacy relative to the maximal stimulation observed with E2

Compound	IC50 [1]	Emax [1]	EC50 [2]	ER/CK % E2 [2]
Cn1nc(-c2ccc(O)cc2)c2cc(C(F)(F)F)ccc21 [Example 171, 4-[1-methyl-5-(trifluoromethyl)-1H-indazol-3-yl]phenol]	582 nM	95%	2380 nM	42 % E2
CCCn1nc2c(Cl)cccc2c1-c1ccc(O)cc1 [Example 44, 4-[7-chloro-2-propyl-2H-indazol-3-yl]phenol]	43 nM	90%	309 nM	48 % E2
Oc1ccc(-c2nn(Cc3ccccc3)c3ccccc23)c(O)c1 [Example 183, 4-(1-benzyl-1H-indazol-3-yl)benzene-1,3-diol]	431 nM	135%	2930 nM	48 % E2
CC(C)n1nc2c(Cl)cccc2c1-c1ccc(O)cc1 [Example 46, 4-(7-chloro-2-isopropyl-2H-indazol-3-yl)phenol]	–	102%	–	67 % E2
OCCn1nc(-c2ccc(O)cc2)c2ccccc21 [Example 158, 4-[1-(2-hydroxyethyl)-1H-indazol-3-yl]phenol]	515 nM	106%	1120 nM	59 % E2
C=CCn1nc2c(C(F)(F)F)cccc2c1-c1ccc(O)cc1 [Example 59, 4-[2-allyl-7-(trifluoromethyl)-2H-indazol-3-yl]phenol]	5 nM	90%	133 nM	36 % E2
Oc1ccc(-c2nn(C3CCCCC3)c3c(F)cccc23)cc1 [Example 33, 4-(1-cyclohexyl-7-fluoro-1H-indazol-3-yl)phenol]	37 nM	92%	51 nM	34 % E2
Oc1ccc(-c2n[nH]c3c(F)cccc23)cc1 [Example 203, 4-(7-fluoro-1H-indazol-3-yl)phenol]	196 nM	117%	1070 nM	48 % E2
Cc1ccccc1-c1cccc2c(-c3ccc(O)cc3)nn(C(C)C)c12 [Example 235, 4-[1-isopropyl-7-(2-methylphenyl)-1H-indazol-3-yl]phenol]	16 nM	74%	223 nM	35 % E2
C=CCn1nc(-c2ccc(O)cc2)c2cccc(C)c21 [Example 57, 4-(1-allyl-7-methyl-1H-indazol-3-yl)phenol]	45 nM	89%	205 nM	45 % E2
Cc1cc(O)ccc1-c1nn(C2CCCC2)c2c(-c3ccccc3C)cccc12 [Example 264, 4-[1-cyclopentyl-7-(2-methylphenyl)-1H-indazol-3-yl]-3-methyl-phenol]	15 nM	74%	15 nM	21 % E2
CCCCCn1nc(-c2ccc(O)cc2)c2cccc(C(F)(F)F)c21 [Example 47, 4-[1-pentyl-7-(trifluoromethyl)-1H-indazol-3-yl]phenol]	97 nM	94%	13 nM	26 % E2
CCCn1nc(-c2ccc(O)cc2C)c2cccc(Cl)c21 [Example 86, 4-(7-chloro-1-propyl-1H-indazole-3-yl)-3-methylphenol]	255 nM	83%	413 nM	27 % E2
Cn1nc(-c2ccc(O)cc2)c2cccc(F)c21 [Example 200, 4-(7-fluoro-1-methyl-1H-indazol-3-yl)phenol]	435 nM	86%	1480 nM	58 % E2
CCCCCn1nc(-c2ccc(O)cc2O)c2cccc(C(F)(F)F)c21 [Example 73, 4-[1-pentyl-7-(trifluoromethyl)-1H-indazol-3-yl]benzen-1,3-diol]	94 nM	76%	103 nM	19 % E2

More lines, in order of falling EC50 [2], values ahead:

IC50 [1]	Emax [1]	EC50 [2]	ER/CK % E2 [2]	Compound
443 nM	121%	2930 nM	71 % E2	Oc1ccc(-c2nn(Cc3ccccc3)c3ccc(C(F)(F)F)cc23)c(O)c1 [Example 182, 4-[1-benzyl-5-(trifluoromethyl)-1H-indazol-3-yl]benzene-1,3-diol]
112 nM	84%	2340 nM	48 % E2	CCCCn1nc(-c2ccc(O)cc2)c2cccc(F)c21 [Example 220, 4-(1-butyl-7-fluoro-1H-indazol-3-yl)phenol]
590 nM	90%	2200 nM	32 % E2	C=CCn1nc2c(Cl)cccc2c1-c1ccc(O)cc1C [Example 78, 4-(2-allyl-7-chloro-2H-indazol-3-yl)-3-methylphenol]
539 nM	160%	1840 nM	68 % E2	Oc1ccc(-c2n[nH]c3ccccc23)cc1O [Example 202, 4-(1H-indazol-3-yl)benzene-1,2-diol]
347 nM	95%	1370 nM	86 % E2	Cn1nc(-c2ccc(O)cc2)c2cc(F)ccc21 [Example 168, 4-(5-fluoro-1-methyl-1H-indazol-3-yl)phenol]
349 nM	95%	1320 nM	92 % E2	Cn1nc(-c2ccc(O)cc2O)c2cc(F)ccc21 [Example 172, 4-(5-fluoro-1-methyl-1H-indazol-3-yl)benzene-1,3-di]
487 nM	100%	1260 nM	42 % E2	CCCCn1nc(-c2ccc(O)cc2)c2ccc(Cl)cc21 [Example 199, 4-(1-butyl-6-chloro-1H-indazol-3-yl)phenol]
92 nM	93%	734 nM	52 % E2	CCCn1nc2c(Cl)cccc2c1-c1ccc(O)cc1C [Example 79, 4-(7-chloro-2-propyl-2H-indazol-3-yl)-3-methylphenol]
371 nM	87%	608 nM	51 % E2	OCCn1nc(-c2ccc(O)cc2O)c2cc(F)ccc21 [Example 192, 4-[5-fluoro-1-(2-hydroxyethyl)-1H-indazol-3-yl]benzene-1,3-diol]
311 nM	83%	588 nM	29 % E2	Cn1nc(-c2ccc(O)cc2O)c2cccc(C(F)(F)F)c21 [Example 167, 4-[1-methyl-7-(trifluoromethyl)-1H-indazol-3-yl]benzene-1,3-diol]
95 nM	85%	415 nM	39 % E2	CCCCCn1nc(-c2ccc(O)cc2)c2cccc(Cl)c21 [Example 41, 4-(7-chloro-1-pentyl-1H-indazol-3-yl)phenol]
26 nM	90%	401 nM	49 % E2	CC(C)n1nc(-c2ccc(O)cc2)c2cccc(F)c21 [Example 55, 4-(7-fluoro-1-isopropyl-1H-indazol-3-yl)phenol]
33 nM	48%	208 nM	33 % E2	Oc1ccc(-c2nn(C3CCCC3)c3c(-c4ccco4)cccc23)cc1 [Example 244, 4-[1-cyclopentyl-7-(2-furyl)-1H-indazol-3-yl]phenol]
347 nM	77%	188 nM	24 % E2	CC(C)n1nc(-c2ccc(O)cc2O)c2cccc(F)c21 [Example 87, 4-(7-fluoro-1-isopropyl-1H-indazole-3-yl)benzene-1,3-diol]
30 nM	84%	165 nM	17 % E2	Cc1cc(O)ccc1-c1nn(C2CCCC2)c2c(-c3ccco3)cccc12 [Example 263, 4-[1-cyclopentyl-7-(2-furyl)-1H-indazol-3-yl)-3-methylphenol]
6 nM	82%	138 nM	28 % E2	Cc1cc(O)ccc1-c1nn(C2CCCC2)c2c(-c3ccccc3)cccc12 [Example 265, 4-(1-cyclopentyl-7-phenyl-1H-indazol-3-yl)-3-methylphenol]
11 nM	82%	136 nM	28 % E2	Oc1ccc(-c2nn(C3CCCC3)c3c(-c4ccccc4)cccc23)cc1 [Example 246, 4-(1-cyclopentyl-7-phenyl-1H-indazol-3-yl)phenol]
–	83%	112 nM	–	CC(C)n1nc(-c2ccc(O)cc2)c2cccc(-c3ccccc3)c21 [Example 236, 4-(1-isopropyl-7-phenyl-1H-indazol-3-yl)phenol]
20 nM	100%	97 nM	38 % E2	C=CCn1nc(-c2ccc(O)cc2)c2cccc(C(F)(F)F)c21 [Example 58, 4-[1-allyl-7-(trifluoromethyl)-1H-indazol-3-yl]phenol]
